The values that follow come from patent US12559454B2, “Benzenesulfonamide derivatives and uses thereof” (2692372 Ontario, Inc., priority 2019, dated 2026).

Molecules are shown by their SMILES.

The target in test [1] is T1, BTK (Homo sapiens, UniProt Q06187). Briefly: In vitro BTK inhibition (no preincubation). It is filed as biochemical. As to conditions: Table 17.
Test [2] addresses T2, BMX (Homo sapiens, UniProt P51813).
T2 sequence (P51813 1-675): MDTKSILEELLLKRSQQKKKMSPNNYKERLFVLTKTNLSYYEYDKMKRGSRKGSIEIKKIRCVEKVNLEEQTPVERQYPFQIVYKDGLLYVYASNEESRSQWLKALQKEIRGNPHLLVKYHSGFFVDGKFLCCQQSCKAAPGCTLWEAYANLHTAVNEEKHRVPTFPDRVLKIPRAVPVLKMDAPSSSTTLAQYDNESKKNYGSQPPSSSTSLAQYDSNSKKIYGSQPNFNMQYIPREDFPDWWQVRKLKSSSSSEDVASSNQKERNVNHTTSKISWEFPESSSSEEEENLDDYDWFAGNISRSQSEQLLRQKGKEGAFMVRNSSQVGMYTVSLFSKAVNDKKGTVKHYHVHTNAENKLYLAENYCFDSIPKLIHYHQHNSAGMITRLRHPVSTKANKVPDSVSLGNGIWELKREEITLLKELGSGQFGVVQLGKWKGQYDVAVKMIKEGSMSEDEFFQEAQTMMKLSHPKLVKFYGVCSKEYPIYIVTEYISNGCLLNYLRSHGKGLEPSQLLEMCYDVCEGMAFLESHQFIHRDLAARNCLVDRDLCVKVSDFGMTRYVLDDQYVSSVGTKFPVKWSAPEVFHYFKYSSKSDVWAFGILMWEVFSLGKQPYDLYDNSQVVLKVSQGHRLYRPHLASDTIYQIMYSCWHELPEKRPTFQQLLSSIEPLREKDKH
The test is described as follows: In vitro kinase inhibition, BMX. Type of test: biochemical.

Test [3] deals with T1, BTK. The test is described as follows: BTK irreversible inhibition, enzyme kinetic analysis. It is filed as biochemical. As to conditions: 500 μM ATP. The method, then:
One of ordinary skill in the art will recognize that this is consistent with the irreversible inhibition of BTK by compound I-A1.
One of ordinary skill in the art will recognize that this is consistent with the irreversible inhibition of BTK by compound I-A6.
One of ordinary skill in the art will recognize that this is consistent with the irreversible inhibition of BTK by compound 3A-2.
The shift of IC50 to a lower value after pre-incubation of the enzyme indicates to one of ordinary skill in the art that a significant portion of the enzyme was inhibited irreversibly during the incubation period.

Test [4] has as its target T1, BTK. Briefly: BTK washout experiment. Type of test: biochemical. As to conditions: 6-h incubation, 50 nM BTK, 280 nM compound, 400-fold dilution. The method, then:
After a 3-h incubation of 40 nM BTK in the presence of 296 nM of compound I-A1, a 400-fold dilution was performed to remove excess inhibitor.
After a 6-h incubation of 50 nM BTK in the presence of 280 nM of compound 3A-6, a 400-fold dilution was performed to remove excess inhibitor.
By way of contrast, a “washout” experiment performed with ARQ-531 gives a very different result, because this compound lacks a warhead and is known to inhibit BTK reversibly. After a 6-h incubation of 50 nM BTK in the presence of 177 nM of ARQ-531, a 400-fold dilution was performed to remove excess inhibitor. […] This indicates to one of ordinary skill in the art that the enzyme was not inhibited irreversibly during the incubation with ARQ-531.

The target in test [5] is T3, NanoLuc-BTK fusion protein (Homo sapiens, UniProt Q06187).
T3 construct: host or cells: HEK 293 cells
The test is described as follows: NanoBRET target engagement assay in HEK 293 cells. Type of test: cell-based. As to conditions: tracer K-5, 2 hours. An excerpt:
Bioluminescence Resonance Energy Transfer (BRET) is used to quantitatively measure the interaction between proteins in live cells. The NanoBRET Target Engagement (TE) Assay ((Promega, Cat #N2500)) measures the apparent binding affinity of test compounds at select kinase proteins by competitive displacement of a fluorescent NanoBRET kinase-ligand tracer (K-5), from a target kinase fused to a NanoLuc luciferase protein within intact cells. To determine whether test compounds can bind BTK, a fixed concentration of NanoBRET tracer is added to cells expressing the NanoLuc-BTK fusion protein, thereby generating a BRET reporter complex. Application of competitive test compounds results in a dose-dependent decrease in NanoBRET™ energy transfer, which allows quantitation of apparent intracellular affinity of the BTK target protein for the test compound.
In order to evaluate the binding between BTK and test compounds, an intracellular drug displacement assay was performed. […] The plates were then analyzed with a Biotek Synergy Neo2 plate reader equipped with NanoBRET 618 filters (donor 450 nm/8 nm BP and acceptor 600 nm LP). […] BRET ratios are expressed as milliBRET units (mBU), where 1 mBU corresponds to the corrected BRET ratio multiplied by 1000.

The target in test [6] is T4, His-tagged BTK kinase domain (Homo sapiens, UniProt Q06187).
T4 construct: Intact His-tagged BTK kinase domain (SOURCE)(10 μM) was incubated
The test is described as follows: Mass spectral analysis of tryptic digest of BTK kinase domain. Type of test: binding. As to conditions: 10 μM BTK KD, 10 μM compound, 45 min; tryptic peptide 467-487. On the procedure:
A protein kinase that is inhibited by compound and/or pharmaceutically acceptable salt of the present disclosure may be subjected to mass spectral analysis to assess the formation of permanent, irreversible covalent adducts. […] Such methods identify permanent, irreversible covalent protein adducts by observing a mass peak that corresponds to the mass of a control sample plus the mass of an irreversible adduct.
After the incubation time, the reactions were quenched by acetone precipitation and the pellet was re-dissolved in 8 M Urea. […] The BTK protein band was then excised and subjected to an in-gel trypsin digest by reducing the protein (5 mM DTT), alkylating the thiols with iodoacetamide (15 mM), and then incubating the protein gel band with trypsin in a 37 C water bath (4 hours). The tryptic digestion was then quenched by the addition of trifluoroacetic acid, and peptides were removed from the gel band by sonicating with increasing amounts of acetonitrile (0%, 30%, & 60%). Peptides were then purified using C18 ziptips, spotted on the MALDI target plate with α-cyano-4-hydroxycinnamic acid as the desorption matrix (10 mg/mL in 0.10% TFA:Acetonitrile 50:50), and analyzed in reflectron mode.

T1 sequence (Q06187 whole entry, species assumed): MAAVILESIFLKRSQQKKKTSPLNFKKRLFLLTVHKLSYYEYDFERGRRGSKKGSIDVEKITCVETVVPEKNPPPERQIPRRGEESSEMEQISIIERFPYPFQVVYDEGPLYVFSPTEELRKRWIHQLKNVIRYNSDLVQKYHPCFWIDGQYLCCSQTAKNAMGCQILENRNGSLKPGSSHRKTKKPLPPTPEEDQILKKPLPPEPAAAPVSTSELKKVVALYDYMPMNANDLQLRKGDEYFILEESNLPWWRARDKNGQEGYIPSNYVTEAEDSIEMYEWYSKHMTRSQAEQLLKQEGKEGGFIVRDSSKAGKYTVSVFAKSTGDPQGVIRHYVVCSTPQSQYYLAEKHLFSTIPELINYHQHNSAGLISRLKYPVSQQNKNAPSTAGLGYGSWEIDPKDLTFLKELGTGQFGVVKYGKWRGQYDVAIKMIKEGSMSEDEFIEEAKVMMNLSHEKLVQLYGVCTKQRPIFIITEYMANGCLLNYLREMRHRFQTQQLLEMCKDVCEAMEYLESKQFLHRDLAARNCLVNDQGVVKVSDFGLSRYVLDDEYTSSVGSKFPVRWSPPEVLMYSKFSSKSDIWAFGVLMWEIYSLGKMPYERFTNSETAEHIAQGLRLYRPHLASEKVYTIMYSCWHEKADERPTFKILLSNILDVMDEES
T4 sequence (Q06187 402-655 limits assumed): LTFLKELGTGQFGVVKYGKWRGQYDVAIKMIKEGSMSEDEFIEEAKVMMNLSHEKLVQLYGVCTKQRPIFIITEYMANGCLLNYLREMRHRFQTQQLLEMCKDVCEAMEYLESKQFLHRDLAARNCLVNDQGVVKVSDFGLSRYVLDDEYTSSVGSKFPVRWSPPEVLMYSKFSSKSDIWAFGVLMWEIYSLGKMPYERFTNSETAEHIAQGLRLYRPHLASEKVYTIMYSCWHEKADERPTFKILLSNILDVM
T3 sequence (Q06187 whole entry, the tested form may be a part): as the sequence (Q06187 whole entry, species assumed) above

With `COc1c(F)c(F)c(F)c(F)c1S(=O)(=O)N1CCC[C@@H](n2nc(-c3ccc(Oc4ccccc4)cc3)c3c(N)ncnc32)C1` [Compound 3A-1, (R)-3-(4-phenoxyphenyl)-1-(1-((2,3,4,5-tetrafluoro-6-methoxyphenyl)sulfonyl)piperidin-3-yl)-1H-pyrazolo[3,4-d]pyrimidin-4-amine], the IC50 in test [1] lay within 0.1 to 1 µM; in test [2], 0.01 to 0.1 µM.
As for `COc1c(F)c(F)c(F)c(F)c1S(=O)(=O)NCCn1nc(-c2ccc(Oc3ccccc3)cc2)c2c(N)ncnc21` [Compound 3A-6, N-(2-(4-amino-3-(4-phenoxyphenyl)-1H-pyrazolo[3,4-d]pyrimidin-1-yl)ethyl)-2,3,4,5-tetrafluoro-6-methoxybenzenesulfonamide], the IC50 was 0.1 to 1 µM in test [1]; 0.109 µM in test [3] (no pre-incubation, read-out: IC50 against BTK not pre-incubated); 0.0139 µM in test [3] (after 3-h incubation of 50 nM BTK with 280 nM compound, read-out: IC50 against pre-incubated BTK); 0.094 µM in test [5]. The inhibition at 0.28 µM in test [4] (read-out: enzyme inhibited irreversibly) is 87%. Moreover, the remaining activity at 0.28 µM in test [4] (relative to DMSO, read-out: residual activity of the enzyme) amounted to 13%. Also, the C481 covalent modification result in test [6] was “covalent modification and ✓”.

Usually IC50 stands for the concentration that inhibits the measured activity by half.
